Experimental data reported in US9422357B2, “Glycosylated polypeptide and drug composition containing said polypeptide” (priority 2011, dated 2016).

Key:
[1] = Pharmacokinetics test with rats (intravenous and subcutaneous administration); conditions: rat
Experimental: PBS solution was prepared by dissolving 1 tablet of Phosphate buffered saline (P4417 from Sigma) in 200 mL of ultrapure water.
0.2 mL of the collected blood was promptly mixed with 0.2 mL of the aprotinin-containing EDTA-PBS solution prepared in the above 68-1, and left on ice for 30 minutes or more. […] As blank plasma, plasma obtained by similarly treating the blood collected from untreated rat cervical vein was employed. Plasma samples were frozen in storage until employed for measurement. […] The standard solution for creating a standard curve was prepared as follows. First, the blank plasma obtained in the above 68-2 was diluted with the assay buffer supplied in the EIA kit similarly to the plasma sample, and this was used as the assay buffer for standard solution preparation (for example, when diluting the plasma sample to 100-fold, 1/100 amount of blank plasma was added to the assay buffer supplied in the EIA kit, and this was used as the assay buffer for standard solution preparation). […] Moreover, the predicted initial concentration (C0) was determined by the extrapolation method for intravenous administration, t1/2 and MRT were calculated, and the maximum plasma concentration (Cmax) was determined from the actual value for subcutaneous administration.
Moreover, the parameters obtained were employed to calculate bioavailability from the following mathematical formula. […]

amylase, LDH, CPK = assay: Gastrointestinal obstruction model, blood parameters (amylase, LDH, CPK); conditions: Table 10; rat gastrointestinal obstruction model
Experimental: This experimental line was carried out as a test line to evaluate the promotion of intestinal fluid absorption or the secretory suppressing action, using the change in the intestinal fluid weight in the jejunum after bowel obstruction as an indicator. Moreover, blood parameters of deviation enzymes amylase (pancreas), lactate dehydrogenase (LDH, liver), and creatine phosphokinase (CPK, skeletal muscle, cardiac muscle etc.) were measured as indicators of tissue disorders.
Anesthesia was introduced with inhalation of 2% isoflurane and laughing gas:oxygen=7:3, and this was maintained throughout the surgery. A median incision was made in the abdomen, and the jejunum at about 10 cm from the musculus suspensorius duodeni was ligated with a surgical suture. Then, the incision site was promptly sutured, and the rats were fasted until compound administration. […]
One hour after compound administration, a median incision was made in the abdomen under inhalation anesthesia, and 1.5 mL of blood was collected from the abdominal vena cava. […] The fluid and blood on the jejunum surface were removed with a paper towel, nerves, blood vessels, and fat attached to the jejunum was removed, this was cut into 6 cm lengths, and wet weight was measured. This was then dried at 36 degrees for 24 hours, and dry weight was measured. […]

Row | Compound | C0, intravenous administration ([1]; Table 5D, no unit at the table (Table 4: nM), extrapolation) | C0, intravenous administration ([1]; Tables 5B-5F, no unit printed in these tables (Table 5A footnote: nM)) | LDH activity compared to the vehicle (amylase, LDH, CPK) | amylase activity compared to the vehicle (amylase, LDH, CPK)
1 | C[C@H](N)C(=O)NCC(=O)N[C@H]1CSSC[C@@H](C(=O)O)NC(=O)[C@H](CO)NC(=O)[C@H]([C@@H](C)O)NC(=O)[C@H](Cc2ccccc2)NC(=O)[C@H]([C@@H](C)O)NC(=O)[C@H](CCCCN)NC(=O)[C@H](Cc2c[nH]c3ccccc23)NC(=O)[C@H](Cc2ccccc2)NC(=O)[C@H](Cc2ccccc2)NC(=O)[C@H](CC(N)=O)NC(=O)[C@H](CCCCN)NC1=O [SRIF14] | 819 | 819 | – | –
2 | C[C@@H](O)[C@@H]1NC(=O)[C@H](CCCCN)NC(=O)[C@@H](Cc2c[nH]c3ccccc23)NC(=O)[C@H](Cc2ccccc2)NC(=O)[C@@H](NC(=O)[C@H](N)Cc2ccccc2)CSSC[C@@H](C(=O)N[C@H](CO)[C@@H](C)O)NC1=O [octreotide] | – | – | low value compared to the vehicle | equivalent to the vehicle
